Data as given in EPA's ToxValDB 9.5 (doi:10.2903/j.efsa.2017.4989).
≈ marks a conversion by molar mass, not a printed value.

What was measured:
[1] = test system: Folsomia candida; details: chronic/long-term; mortality
[2] = test system: Hypoaspis aculeifer; details: chronic/long-term; mortality
[3] = test system: Oncorhynchus mykiss; details: for LC50: acute, duration: 96 hours, mortality
[4] = test system: Rattus norvegicus
[5] = test system: Tagia sp.; details: chronic/long-term; growth
[6] = test system: Anas platyrhynchos; details: acute; oral; unspecified; mortality
[7] = test system: Apis mellifera; details: acute, duration: 48 hours, mortality
[8] = test system: Colinus virginianus
[9] = test system: Daphnia magna; details: chronic/long-term; duration: 21 days; reproduction
[10] = test system: Oryctolagus sp.; details: developmental; development

Row | SMILES | NOEC [1] | NOEC [2] | LC50 [3] | LD50 ([4]; acute, oral, mortality) | NOAEL ([4]; short-term, duration: 28 days, clinical chemistry) | NOEC [5] | NOAEL ([4]; short-term, duration: 28 days) | LD50 [6] | LD50 ([7]; dermal) | LD50 ([7]; oral, unspecified) | LD50 ([8]; acute, oral, mortality) | NOEL ([8]; chronic) | NOEC [9] | NOEC ([3]; chronic/long-term, duration: 95 days, other) | NOAEL [10] | LC50 ([4]; acute, oral, mortality) | NOAEL ([4]; chronic, body weight) | NOAEL ([4]; reproduction developmental, body weight)
1 | CO/N=C(/C(=O)O)c1ccccc1CO/N=C(\C(=O)O)c1cccc(C(F)(F)F)c1 | 10 mg/kg | 100 mg/kg | > 100 µg/mL | > 2000 mg/kg-day | 150 mg/kg-day | 100 mg/kg | – | – | – | – | – | – | – | – | – | – | – | –
2 | CO/N=C(/C(=O)O)c1ccccc1CO/N=C(/C(=O)O)c1cccc(C(F)(F)F)c1 | 100 mg/kg | – | > 100 µg/mL | > 2000 mg/kg-day | – | 100 mg/kg | > 1000 mg/kg-day | – | – | – | – | – | – | – | – | – | – | –
3 | CO/N=C(/C(=O)OC)c1ccccc1CO/N=C(\C)c1cccc(C(F)(F)F)c1 [Trifloxystrobin] | 249 mg/kg | 249 mg/kg | 0.015 µg/mL (≈ 0.0367 µM) | – | – | 3.5 mg/kg | – | > 2250 mg/kg-day | > 100 µg/piece | > 110 µg/piece | > 2000 mg/kg-day | 31 mg/kg-day | 0.00276 mg/L | 0.0043 mg/L | 50 mg/kg-day | > 5000 mg/kg-day | 10 mg/kg-day | 10 mg/kg-day
